Experiments:
hemorrhagic shock = assay: Hemorrhagic shock model, Example 1 (bled to MAP 40 mmHg, 0.9% NaCl resuscitation): blood cells, hematocrit, hepatic blood flow; assay type: in vivo, Wistar rats; details: for leukocyte concentration, peptide-treated vs non-treated animals: 5 mg/kg i.v. 30 minutes after induction of shock; for leukocytes, minimum during trauma-hemorrhage: 100% at T0, 5 mg/kg i.v. single bolus 30 minutes after induction of shock; for concentrations of circulating macrophages and granulocytes compared to the non-treated animals: 120 minutes after the onset of hemorrhagic shock, single dose; for blood levels of circulating macrophages and granulocytes / concentrations of circulating macrophages and granulocytes compared with the corresponding experimental group / decrease of circulating macrophages and granulocytes compared with concentrations after trauma-hemorrhage: 180 minutes after onset of trauma-hemorrhage; for arterial hepatic blood flow during the shock period: control group 102.6±23.5%
Experimental: Adult male specific pathogen-free Wistar rats (Harlan CPB, Zeist, The Netherlands), weighing 350 to 400 g were used after a minimum seven-day acclimation period. The animals were housed under barrier conditions and kept at 25° C. with a twelve-hour light/dark cycle. Rats were allowed free access to water and chow (−). All procedures were performed in accordance with the Principles of Laboratory Animal Care (NIH publication No. 86-23, revised 1985) under a protocol approved by the Committee on Animal Research of the Erasmus University (protocol EUR 365).
The rats were fasted overnight but were allowed free access to water before the experiment. Subsequent to endotracheal intubation, the rats were mechanically ventilated with an isoflurane (−) N2O/O2 mixture at 60 breaths/minute. Body temperature was continuously maintained at 37.5° C. by placing the animals on a thermo controlled “half-pipe” (UNO, The Netherlands). Polyethylene tubes (PE-50, Becton Dickinson; St. Michielsgestel, The Netherlands) were flushed with heparin and placed via the right carotid artery in the aorta and in the right internal jugular vein. The animals received no heparin before or during the experiment.
Mean arterial pressures (MAP) was measured using transducers (Becton Dickinson) that were connected in line to an electronic recorder (Hewlett Packard, 78354-A Germany) for electronically calculated mean pressures and continuous measurement of the animal's blood pressure. Under semi-sterile conditions, a median laparotomy was performed and ultrasonic perivascular flow probes (Transonic Systems Inc, Maastricht, The Netherlands) were placed on the common hepatic artery and the portal vein. A supra pubic catheter was placed to monitor the urine production during and after resuscitation.
After an acclimatization period of 20 minutes, the rats were randomized into the following five groups: • Hemorrhagic shock group were bled within ten minutes to a mean arterial pressure (MAP) of 40 mmHg and maintained at this level for 60 minutes by withdrawing or re-infusing shed blood as needed. Thereafter, the animals were resuscitated with plus minus four times the volume of the withdrawn blood over 30 minutes with a 0.9% NaCl solution. • The hemorrhagic shock group+peptide A (LAGV (SEQ ID NO:3); one-letter amino acid code) underwent the same procedure as the hemorrhagic shock group but received a single bolus injection of 5 mg/kg peptide A intravenously 30 minutes after the induction of shock. • The hemorrhagic shock group+peptide B (AQGV (SEQ ID NO:1)) underwent the same procedure as the hemorrhagic shock group and received a single bolus injection of 5 mg/kg peptide B intravenously, 30 minutes after the induction of shock. • The hemorrhagic shock group+peptide C (LQGV (SEQ ID NO:2)) underwent the same procedure as the hemorrhagic shock group and received a single bolus injection of 5 mg/kg peptide C intravenously, 30 minutes after the induction of shock. • Sham group underwent the same procedure as the hemorrhagic shock group without performing the hemorrhage or administration of any kind of peptides.
The hepatic arterial blood flow (QHA) and hepatic portal venous blood flow (QVP) were measured with transit time ultrasonic perivascular flow probes, connected to an ultrasonic meter (T201; Transonic Systems, Inc., Maastricht, NL). Systemic and hepatic hemodynamics were continuously measured. At regular time points, arterial blood samples were taken. The animals were euthanized by withdrawal of arterial blood via the carotid artery.
Plasma collection and storage: Whole arterial blood was obtained at −15, 30, 60, 90, 120, 150 and 180 minutes after induction of shock via the right carotid artery and collected in duplo. 0.2 ml was placed in tubes (Eppendorf EDTA KE/1.3) to be assayed in the coulter counter (−). 0.5 ml was placed in Minicollect tubes (Bio-one, Greiner) centrifuged for five minutes, immediately frozen, and stored at −80° C., until assayed. […]

TNF-α [1] = assay: Hemorrhagic shock model, Example 2: TNF-α plasma levels by ELISA; assay type: in vivo, Wistar rats; details: for increase in plasma TNF-α levels during the experiment: 10 mg/kg single bolus 30 minutes after onset of shock, up to 180 minutes; for TNF-α plasma levels: 10 mg/kg single dose after induction of hemorrhagic shock, vs non-treated HS
Experimental: (§1) Adult male specific pathogen-free Wistar rats (Harlan CPB, Zeist, The Netherlands), weighing 350 to 400 g were used. Animals were housed under barrier conditions at 25° C. with a twelve-hour light/dark cycle, and were allowed food and water ad libitum. The experimental protocol was approved by the Animal Experiment Committee under the Dutch Experiments on Animals Act and adhered to the rules laid down in this national law that serves the implementation of “Guidelines on the protection of experimental animals” by the Council of Europe (1986), Directive 86/609/EC.
(§2) Synthetic oligopeptides: The oligopeptides (LQGV (SEQ ID NO:2), AQGV (SEQ ID NO:1), and LAGV (SEQ ID NO:3)) were synthesized by Ansynth Service B.V. (Roosendaal, The Netherlands) and dissolved in 0.9% NaCl at a concentration of 10 mg/ml.
Surgical procedures: Rats were food deprived overnight before the experiment, but were allowed water ad libitum. Rats were anesthetized using a mixture of N2O/O2 isoflurane (Pharmachemie B.V., Haarlem, The Netherlands). Body temperature was continuously maintained at 37.5° C. by placing the rats on a thermo controlled “half-pipe” (UNO, Rotterdam, The Netherlands). Endotracheal intubation was performed, and rats were ventilated at 60 breaths per minute with a mixture of N2O/O2 2% isoflurane. Polyethylene tubes (PE-50, Becton Dickinson; St. Michielsgestel, The Netherlands) were flushed with heparin and placed via the right carotid artery in the aorta and in the right internal jugular vein. The rats received no heparin before or during the experiment.
(§3) Experimental procedures: After an acclimatization period of 15 minutes, the rats were randomized into five different groups: 1) sham, 2) hemorrhagic shock (HS), 3) hemorrhagic shock with LQGV (SEQ ID NO:2) treatment (HS/LQGV (SEQ ID NO:2)), 4) hemorrhagic shock with AQGV treatment (HS/AQGV (SEQ ID NO:1)) and 5) hemorrhagic shock with LAGV (SEQ ID NO:3) treatment (HS/LAGV (SEQ ID NO:3). Hemorrhagic shock was induced by blood withdrawal, reducing the circulating blood volume until a mean arterial pressure (MAP) of […] mmHg was reached. This level of hypotension was maintained for 60 minutes. After 30 minutes, rats received either a single bolus injection of 10 mg/kg LQGV (SEQ ID NO:2), AQGV (SEQ ID NO:1), LAGV (SEQ ID NO:3), or 0.9% NaCl solution. The peptides and dosage were based on previous studies, in which we performed dose-escalation experiments (manuscript in preparation). Sixty minutes after induction of hemorrhagic shock, rats were resuscitated by autologous blood transfusion over a period of 30 minutes and monitored for another 120 minutes, after which they were sacrificed (FIG. 7, Panel A). Sham animals underwent the same surgical procedure as the hemorrhagic shock animals, but without performing hemorrhage and administration of peptides.
Plasma collection and storage: Arterial blood was obtained 15 minutes before and 30, 60, 90, 120, 150 and 180 minutes after onset of hemorrhage (FIG. 7, Panel A). After blood withdrawal, leukocyte numbers were determined using a coulter counter (Beckman Coulter, Mijdrecht, The Netherlands) and corrected for the hematocrit. Approximately 0.3 ml of blood was placed into mini collect tubes (Greiner, Bio-one, Alphen a/d Rijn, The Netherlands), plasma was obtained by centrifugation (1500 r.p.m.; five minutes), immediately frozen, and stored at −80° C., until assayed.
Measurement of cytokines: TNF-α and IL-6 plasma levels were determined by ELISA (R&D Systems Europe Ltd., Abingdon, UK), according to the manufacturer's instructions.
(§4) Statistical analysis: Statistical analysis was performed using SPSS version 11 software (SPSS Inc., Chicago, Ill.). Inter-group differences were analyzed with Kruskal-Wallis statistical test.

IL-6 [2] = assay: Hemorrhagic shock model, Example 2: IL-6 plasma levels by ELISA; assay type: in vivo, Wistar rats; details: 10 mg/kg single dose; 120, 150 and 180 minutes after onset of shock
Experimental: as §1, §2
Surgical procedures: Rats were food deprived overnight before the experiment, but were allowed water ad libitum. Rats were anesthetized using a mixture of N2O/O2 isoflurane (Pharmachemie B.V., Haarlem, The Netherlands). […]
Experimental procedures: After an acclimatization period of 15 minutes, the rats were randomized into five different groups: 1) sham, 2) hemorrhagic shock (HS), 3) hemorrhagic shock with LQGV (SEQ ID NO:2) treatment (HS/LQGV (SEQ ID NO:2)), 4) hemorrhagic shock with AQGV treatment (HS/AQGV (SEQ ID NO:1)) and 5) hemorrhagic shock with LAGV (SEQ ID NO:3) treatment (HS/LAGV (SEQ ID NO:3). […] Sixty minutes after induction of hemorrhagic shock, rats were resuscitated by autologous blood transfusion over a period of 30 minutes and monitored for another 120 minutes, after which they were sacrificed (FIG. 7, Panel A). […]
Plasma collection and storage: Arterial blood was obtained 15 minutes before and 30, 60, 90, 120, 150 and 180 minutes after onset of hemorrhage (FIG. 7, Panel A). After blood withdrawal, leukocyte numbers were determined using a coulter counter (Beckman Coulter, Mijdrecht, The Netherlands) and corrected for the hematocrit. […]

TNF-α [3] = assay: Hemorrhagic shock model, Example 2: TNF-α mRNA transcripts in tissue by RQ-PCR; assay type: in vivo, Wistar rats; details: 180 minutes after onset of shock, 10 mg/kg, normalized against GAPDH
Experimental: as §3
(§5) Tissue collection and storage: Liver, lungs, ileum and sigmoid were surgically removed at the end of the experiment, snap-frozen, and stored at −80° C., until assayed.
(§6) Evaluation of mRNA levels by real-time quantitative (RQ)-PCR: RNA was isolated using a QIAGEN kit (QIAGEN, Hilden, Germany), according to the manufacturer's instructions. TNF-α, IL-6 and ICAM-1 transcripts were determined by RQ-PCR using an Applied Biosystems 7700 PCR machine (Foster City, Calif., USA) as described previously.^[27] TNF-α, IL-6 and ICAM-1 expression was quantified by normalization against GAPDH.
as §4

IL-6 [4] = assay: Hemorrhagic shock model, Example 2: IL-6 mRNA transcripts in tissue by RQ-PCR; assay type: in vivo, Wistar rats; details: 180 minutes after onset of shock, 10 mg/kg, normalized against GAPDH
Experimental: as §3, §5, §6, §4

ICAM-1 = assay: Hemorrhagic shock model, Example 2: ICAM-1 mRNA transcripts in tissue by RQ-PCR; assay type: in vivo, Wistar rats; details: 180 minutes after onset of shock, 10 mg/kg, normalized against GAPDH
Experimental: as §3, §5, §6, §4

[5] = system: pro-inflammatory cytokines; details: 150 mg/kg; cited from earlier work

| Substance | leukocyte concentration, peptide-treated vs non-treated animals (hemorrhagic shock) | leukocytes, minimum during trauma-hemorrhage (hemorrhagic shock) [%] | concentrations of circulating macrophages and granulocytes compared to the non-treated animals (hemorrhagic shock) | blood levels of circulating macrophages and granulocytes (hemorrhagic shock; 5 mg/kg i.v.) | concentrations of circulating macrophages and granulocytes compared with the corresponding experimental group (hemorrhagic shock; 5 mg/kg i.v.) | decrease of circulating macrophages and granulocytes compared with concentrations after trauma-hemorrhage (hemorrhagic shock; 5 mg/kg i.v.) [%] | blood flow in the hepatic artery during the reperfusion (hemorrhagic shock; reperfusion, 5 mg/kg i.v., shock group 128.9±75.4%, control 83.7±24.2%) [%] | arterial hepatic blood flow during the shock period (hemorrhagic shock; 5 mg/kg i.v.) [%] | increase in plasma TNF-α levels during the experiment (TNF-α [1]) | TNF-α plasma levels (TNF-α [1]) | IL-6 plasma levels compared to the non-treated hemorrhagic shock group (IL-6 [2]) | TNF-α transcripts in the liver compared to non-treated HS (TNF-α [3]) | IL-6 mRNA transcripts in the liver compared to the HS group (IL-6 [4]) | ICAM-1 transcript levels in the liver (ICAM-1) | mRNA expression of pro-inflammatory cytokines in the liver after hemorrhagic shock [5] |
| --- | --- | --- | --- | --- | --- | --- | --- | --- | --- | --- | --- | --- | --- | --- | --- |
| AQGV [synthetic tetrapeptide, alanine replacement variant of LQGV from loop two of the β-subunit of hCG] | No significant difference | 47.3±12.4 | decreased | 4,432±0.736 10^9/1 | significantly lower | 29.9 | 78.4±28.3 | 18.1±9.0 | none | significant reduction | significant reduction | reduction | significant reduction | did not affect |  |
| Alanine-glutamine dipeptide [AG] |  |  |  |  |  |  |  |  |  |  |  |  |  |  | inhibited |
| LAGV [synthetic tetrapeptide, alanine replacement variant of LQGV from loop two of the β-subunit of hCG] | No significant difference | 42.0±8.7 |  |  |  |  |  | 21.3±9.1 | none | significant reduction | significant reduction | reduction | reduction | did not affect |  |
| LQGV [synthetic tetrapeptide, part of the primary structure of loop two of the β-subunit of hCG] | No significant difference | 38.2±7.4 | decreased | 3,846±0.636 10^9/1 | significantly lower | 39.2 |  | 21.2±8.6 | none | significant reduction | significant reduction | significant reduction | significant reduction | did not affect |  |

Reference: US20080267936A1, “Treatment of trauma-hemorrhage with short oligopeptides” (Biotempt B.V., priority 2007, published 2008)
